Experimental data taken from ChEMBL document CHEMBL4145551, “Mitochondria-targeting indolizino[3,2-c]quinolines as novel class of photosensitizers for photodynamic anticancer activity” (Eur J Med Chem, 2018).
Calls of active or inactive are those of the source. The rule behind the calls is not given here.

How the values were obtained:
HeLa [1] = assay: Photocytotoxicity against human HeLa cells assessed as cellular shrinkage up to 10 uM preincubated for 1 hr followed by blue LED light irradiation for 5 mins and measured after 13 hrs by Hoechst 33258 staining based fluorescence microscopic method; assay type: functional, cell-based
HeLa [2] = assay: Photocytotoxicity against human HeLa cells assessed as plasma membrane blebbing at 0.5 uM preincubated for 1 hr followed by blue LED light irradiation for 5 mins and measured after 13 hrs by propidium iodide staining based fluorescence microscopic method; assay type: functional, cell-based
[3] = Drug uptake in human HeLa cell nucleus at 10 uM after 1 hr by mitotracker red staining based confocal laser scanning microscopic method; assay type: ADME, subcellular
HeLa [4] = assay: Photocytotoxicity against human HeLa cells assessed as DNA fragmentation up to 10 uM preincubated for 1 hr followed by blue LED light irradiation for 5 mins and measured after 13 hrs by Hoechst 33258 staining based fluorescence microscopic method; assay type: functional, cell-based
HeLa [5] = assay: Photocytotoxicity against human HeLa cells assessed as chromatin condensation up to 10 uM preincubated for 1 hr followed by blue LED light irradiation for 5 mins and measured after 13 hrs by Hoechst 33258 staining based fluorescence microscopic method; assay type: functional, cell-based
Calf thymus DNA = assay: Binding affinity to calf thymus DNA assessed as red shift in emission maxima; assay type: nucleic-acid assay; conditions: Bos taurus
HeLa [6] = assay: Photocytotoxicity against human HeLa cells assessed as reduction in cell viability preincubated for 1 hr followed blue LED light irradiation for 10 mins and measured after 24 hrs by MTT assay; assay type: functional, cell-based
HeLa [7] = assay: Photocytotoxicity against human HeLa cells assessed as membrane protrusion at 5 uM preincubated for 1 hr followed by blue LED light irradiation for 10 to 30 mins and measured after 2.5 hrs by holotomographic method; assay type: functional, cell-based
[8] = Drug uptake in human HeLa cell mitochondria at 10 uM incubated for 1 to 2 hrs under 488 nanometer laser light irradiation by confocal microscopic method; assay type: ADME
MCF7 [9] = assay: Photocytotoxicity against human MCF7 cells assessed as cytoplasmic shrinkage at 10 uM preincubated for 1 hr followed by 488 nanometer laser light irradiation and measured after 8 to 10 mins by confocal microscopic method; assay type: functional, cell-based
[10] = Dark toxicity in human A549 cells assessed as reduction in cell viability up to 10 uM measured after 24 hrs by MTT assay; assay type: cell-based; conditions: a549, 24 h
A549 [11] = assay: Photocytotoxicity against human A549 cells assessed as reduction in cell viability preincubated for 1 hr followed blue LED light irradiation for 10 mins and measured after 24 hrs by MTT assay; assay type: functional, cell-based
HeLa [12] = assay: Photocytotoxicity against human HeLa cells assessed as plasma membrane blebbing at 20 uM preincubated for 1 hr followed by blue LED light irradiation for 10 mins and measured after 2.5 hrs by holotomographic method; assay type: functional, cell-based
[13] = Induction of singlet oxygen production assessed as photodegradation of DPBF by measuring quantum yield after irradiation with 356 nanometer light by UV-Visible spectroscopic analysis; assay type: functional
[14] = Dark toxicity in human HeLa cells assessed as reduction in cell viability up to 10 uM measured after 24 hrs by MTT assay; assay type: cell-based
DNA [15] = assay: Induction of Escherichia coli pBR322 DNA cleavage at 20 uM after 30 mins under dark condition by agarose gel electrophoresis method; assay type: nucleic-acid assay; conditions: 0.5 h
DNA [16] = assay: Binding affinity to Escherichia coli pBR322 DNA assessed as increase in test compound fluorescence irradiated with blue LED light for 5 to 20 mins; assay type: nucleic-acid assay
HeLa [17] = assay: Photocytotoxicity against human HeLa cells assessed as reduction in cell viability preincubated for 1 hr followed blue LED light irradiation for 5 mins and measured after 24 hrs by MTT assay; assay type: functional, cell-based
HeLa [18] = assay: Photocytotoxicity against human HeLa cells assessed as increase in cleaved caspase-3 protein expression preincubated for 1 hr followed by blue LED light irradiation for 10 mins and measured after 18 hrs by Western blot analysis; assay type: functional, cell-based
HeLa [19] = assay: Photocytotoxicity against human HeLa cells assessed as cell shrinkage at 10 uM preincubated for 1 hr followed by blue LED light irradiation for 5 mins and measured after 13 hrs by propidium iodide staining based fluorescence microscopic method; assay type: functional
HeLa [20] = assay: Photocytotoxicity against human HeLa cells assessed as plasma membrane blebbing at 5 uM preincubated for 1 hr followed by blue LED light irradiation for 10 to 30 mins and measured after 2.5 hrs by holotomographic method; assay type: functional, cell-based
DNA [21] = assay: Induction of Escherichia coli pBR322 DNA cleavage at 20 uM irradiated with blue LED light after 30 mins in presence of H2O2 scavenger KI by agarose gel electrophoresis method; assay type: nucleic-acid assay
MCF7 [22] = assay: Photocytotoxicity against human MCF7 cells assessed as reduction in cell viability preincubated for 1 hr followed blue LED light irradiation for 10 mins and measured after 24 hrs by MTT assay; assay type: functional, cell-based
A549 [23] = assay: Photocytotoxicity against human A549 cells assessed as reduction in cell viability preincubated for 1 hr followed blue LED light irradiation for 5 mins and measured after 24 hrs by MTT assay; assay type: functional, cell-based
HeLa [24] = assay: Photocytotoxicity against human HeLa cells assessed as cytoplasmic shrinkage at 10 uM preincubated for 1 hr followed by 488 nanometer laser light irradiation and measured after 8 to 10 mins by confocal microscopic method; assay type: functional, cell-based
HeLa [25] = assay: Photocytotoxicity against human HeLa cells assessed as increase in cleaved caspase-9 protein expression preincubated for 1 hr followed by blue LED light irradiation for 10 mins and measured after 18 hrs by Western blot analysis; assay type: functional, cell-based
DNA [26] = assay: Induction of Escherichia coli pBR322 DNA cleavage at 20 uM irradiated with blue LED light after 30 mins in presence of hydroxyl radical scavenger mannitol by agarose gel electrophoresis method; assay type: nucleic-acid assay
HeLa [27] = assay: Photocytotoxicity against human HeLa cells assessed as cell rounding at 20 uM preincubated for 1 hr followed by blue LED light irradiation for 10 mins and measured after 2.5 hrs by holotomographic method; assay type: functional, cell-based
MCF7 [28] = assay: Photocytotoxicity against human MCF7 cells assessed as induction of mitochondrial membrane potential depolarization at 10 uM preincubated for 1 hr followed by blue LED light irradiation for 5 mins by TMRE staining based confocal microscopic method; assay type: functional, cell-based
[29] = Drug uptake in mouse NIH/3T3 cell mitochondria at 10 uM incubated for 1 to 2 hrs under 488 nanometer laser light irradiation by confocal microscopic method; assay type: ADME; conditions: nih3t3, 10 µM
HeLa [30] = assay: Photocytotoxicity against human HeLa cells assessed as reduction in cell viability at 2 uM preincubated for 1 hr followed blue LED light irradiation for 5 mins and measured after 24 hrs in presence of singlet oxygen scavenger histidine by MTT assay; assay type: functional, cell-based
HeLa [31] = assay: Photocytotoxicity against human HeLa cells assessed as cell shrinkage at 20 uM preincubated for 1 hr followed by blue LED light irradiation for 10 mins and measured after 2.5 hrs by holotomographic method; assay type: functional, cell-based
NIH3T3 = assay: Cytotoxicity against mouse NIH/3T3 cells assessed as cytoplasmic shrinkage at 10 uM preincubated for 1 hr followed by 488 nanometer laser light irradiation and measured after 16 mins by confocal microscopic method; assay type: cell-based; conditions: nih3t3, 16 min
HeLa [32] = assay: Induction of ROS generation in human HeLa cells preincubated for 1 hr followed by blue LED light irradiation for 15 mins by DHE staining based HCS analysis; assay type: functional, cell-based

Drug uptake [3]: Not Active
Activity (Calf thymus DNA): 36 nm
Drug uptake [8]: Active
Activity (DNA [16]): Active
Activity (DNA [21]): inactive
Activity (DNA [26]): Active
Drug uptake [29]: Active
Structure (SMILES): Cc1cccn2c1cc1c3ccccc3nc(-c3ccco3)c12
Activity (HeLa [1]): Active
Activity (HeLa [2]): Active
Activity (HeLa [4]): Active
Activity (HeLa [5]): Active
Activity (HeLa [6]): Dose-dependent effect
IC50 (HeLa [6]; light or radiation study): 1120 nM
Activity (HeLa [7]): Active
Activity (MCF7 [9]): Active
Activity [10]: Non-Toxic
Activity (A549 [11]): Dose-dependent effect
IC50 (A549 [11]; A549, light or radiation study): 2370 nM
Activity (HeLa [12]): Active
Activity [13]: 0.33
Activity [14]: Non-Toxic
Activity (DNA [15]): Non-Toxic
Activity (HeLa [17]): Dose-dependent effect
IC50 (HeLa [17]; light or radiation study): 1760 nM
Activity (HeLa [18]): Dose-dependent effect
Activity (HeLa [19]): Active
Activity (HeLa [20]): Active
Activity (MCF7 [22]): Dose-dependent effect
IC50 (MCF7 [22]; MCF7, light or radiation study): 1670 nM
Activity (A549 [23]): Dose-dependent effect
IC50 (A549 [23]; A549, light or radiation study): 2960 nM
Activity (HeLa [24]): Active
Activity (HeLa [25]): Dose-dependent effect
Activity (HeLa [27]): Active
Activity (MCF7 [28]): Active
Activity (HeLa [30]): inactive
Activity (HeLa [31]): Active
Activity (NIH3T3): Non-Toxic
Activity (HeLa [32]): Dose-dependent effect
